Laboratory results from ChEMBL document CHEMBL4706477, “Synthesis and Biological Evaluation of Calothrixins B and their Deoxygenated Analogues” (J Med Chem, 2018).
Calls of active or inactive are those of the source. The rule behind the calls is not given here.

Columns and labels:
Calf thymus DNA [1] = assay: Binding affinity to calf thymus DNA assessed as hypsochromic shift absorbance measured at 284 nm at 3*10^-5 mol/L by double beam UV-Vis spectroscopic analysis; format: nucleic-acid assay; settings: Bos taurus
MCF7 = assay: cells; settings: Homo sapiens, MCF7, 48 h
Description: Antiproliferative activity against human MCF7 cells assessed as reduction in cell viability incubated for 48 hrs by sulphorhodamine B assay

NCI-H460 [2] = assay: Induction of apoptosis in human NCI-H460 cells assessed as nuclear fragmentation at 2 uM incubated for 48 hrs by acridine orange/propidium iodide double staining based fluorescence microscopy analysis; format: functional, cell-based
physchem [3] = settings: octanol/buffer, pH 7.4
Description: Octanol/buffer distribution coefficient, log D of the compound at pH 7.4

HCT-116 [4] = assay: Induction of apoptosis in human HCT-116 cells assessed as reduction in PARP protein levels at 3 uM incubated for 48 hrs by Western blot analysis; format: functional, cell-based
NCI-H460 [5] = assay: cells; settings: Homo sapiens, NCI-H460, 48 h
Description: Antiproliferative activity against human NCI-H460 cells assessed as reduction in cell viability incubated for 48 hrs by sulphorhodamine B assay

NCI-H460 [6] = assay: Induction of apoptosis in human NCI-H460 cells assessed as chromatin condensation at 2 uM incubated for 48 hrs by acridine orange/propidium iodide double staining based fluorescence microscopy analysis; format: functional, cell-based
HCT-116 [7] = assay: cells; settings: Homo sapiens, HCT-116, 48 h
Description: Antiproliferative activity against human HCT-116 p53-/- cells assessed as reduction in cell viability incubated for 48 hrs by sulphorhodamine B assay

Jurkat = assay: cells; settings: Homo sapiens, 48 h
Description: Antiproliferative activity against human Jurkat cells assessed as reduction in cell viability incubated for 48 hrs by sulphorhodamine B assay

Calf thymus DNA [8] = assay: Binding affinity to calf thymus DNA assessed as hyperchromic shift measured at 432 nm at 3*10^-5 mol/L by double beam UV-Vis spectroscopic analysis; format: nucleic-acid assay; settings: Bos taurus
HCT-116 [9] = assay: cells; settings: Homo sapiens, HCT-116, 48 h; remark: listed apart in the source
Description: Antiproliferative activity against human HCT-116 cells assessed as reduction in cell viability incubated for 48 hrs by sulphorhodamine B assay

[10] = target: T1, DNA topoisomerase 2-alpha (Homo sapiens, UniProt P11388); assay: Inhibition of recombinant human topoisomerase 2 assessed as decrease in relaxation of supercoiled pBlue-Script KS(+) plasmid DNA at < 100 uM incubated for 30 mins by ethidium bromide staining based gel electrophoresis method; settings: dose microM <100, time 30.0 min
HCT-116 [11] = assay: Induction of cell cycle arrest in human HCT-116 cells assessed as accumulation of cells at G1/S phase at 2 uM incubated for 48 hrs by propidium iodide staining based flow cytometry analysis; format: functional
HeLa [12] = assay: cells; settings: Homo sapiens, 48 h
Description: Antiproliferative activity against human HeLa cells assessed as reduction in cell viability incubated for 48 hrs by sulphorhodamine B assay

U-251 = assay: cells; settings: Homo sapiens, U-251, 48 h
Description: Antiproliferative activity against human U-251 cells assessed as reduction in cell viability incubated for 48 hrs by sulphorhodamine B assay

HCT-116 [13] = assay: Induction of apoptosis in human HCT-116 cells assessed as chromatin condensation at 2 uM incubated for 48 hrs by acridine orange/propidium iodide double staining based fluorescence microscopy analysis; format: functional, cell-based
SiHa = assay: cells; settings: Homo sapiens, 48 h
Description: Antiproliferative activity against human SiHa cells assessed as reduction in cell viability incubated for 48 hrs by sulphorhodamine B assay

MDA-MB-231 = assay: cells; settings: Homo sapiens, MDA-MB-231, 48 h
Description: Antiproliferative activity against human MDA-MB-231 cells assessed as reduction in cell viability incubated for 48 hrs by sulphorhodamine B assay

[14] = target: T1, DNA topoisomerase 2-alpha; assay: Inhibition of recombinant human topoisomerase 2 assessed as decrease in relaxation of supercoiled pBlue-Script KS(+) plasmid DNA at 200 uM incubated for 30 mins by ethidium bromide staining based gel electrophoresis method
Calf thymus DNA [15] = assay: Binding affinity to calf thymus DNA assessed as hyperchromic shift measured at 362 nm at 3*10^-5 mol/L by double beam UV-Vis spectroscopic analysis; format: nucleic-acid assay; settings: Bos taurus
HCT-116 [16] = assay: Induction of DNA damage in human HCT-116 cells assessed as tail length at 0.5 uM incubated for 48 hrs by alkaline Comet assay relative to control; format: functional, cell-based
HeLa [17] = assay: Induction of apoptosis in human HeLa cells assessed as increase in cleaved PARP levels at 1 uM by Western blot analysis; format: functional, cell-based; settings: time 6-24 hrs, TDE = time-dependent effect
physchem [18] = settings: octanol/water
Description: Octanol/water partition coefficient, log P of the compound

NCI-H460 [19] = assay: Induction of apoptosis in human NCI-H460 cells assessed as increase in cleaved PARP protein levels at 3 uM incubated for 48 hrs by Western blot analysis; format: functional, cell-based
HCT-116 [20] = assay: Induction of apoptosis in human HCT-116 cells assessed as nuclear fragmentation at 2 uM incubated for 48 hrs by acridine orange/propidium iodide double staining based fluorescence microscopy analysis; format: functional, cell-based
HCT-116 [21] = assay: Induction of cell cycle arrest in human HCT-116 cells assessed as accumulation of cells at sub-G1 phase at 2 uM incubated for 48 hrs by propidium iodide staining based flow cytometry analysis; format: functional
Calf thymus DNA [22] = assay: Binding affinity to calf thymus DNA assessed as hypochromic effect at 3*10^-5 mol/L by double beam UV-Vis spectroscopic analysis; format: nucleic-acid assay; settings: Bos taurus
Calf thymus DNA [23] = assay: Binding affinity to calf thymus DNA assessed as bathochromic shift absorbance in absorption maximum at 3*10^-5 mol/L by double beam UV-Vis spectroscopic analysis; format: nucleic-acid assay; settings: Bos taurus
HCT-116 [24] = assay: Induction of cell cycle arrest in human HCT-116 cells assessed as accumulation of cells at G1 phase at 5 uM incubated for 3 to 20 hrs in presence of 0.3 uM mitotic inhibitor nocodazole by propidium iodide staining based flow cytometry analysis; format: functional; settings: time 3-20 hrs
HCT-116 [25] = assay: Induction of cell cycle arrest in human HCT-116 cells assessed as accumulation of cells at G2/M phase at 5 uM incubated for 3 to 20 hrs in presence of 0.3 uM mitotic inhibitor nocodazole by propidium iodide staining based flow cytometry analysis; format: functional; settings: time 3-20 hrs
HCT-116 [26] = assay: Induction of cell cycle arrest in human HCT-116 cells assessed as accumulation of cells at G1 phase at 5 uM incubated for 48 hrs by propidium iodide staining based flow cytometry analysis; format: functional
HeLa [27] = assay: Induction of apoptosis in human HeLa cells assessed as increase in cleaved PARP levels at 10 uM by Western blot analysis; format: functional, cell-based; settings: time 6-48 hrs, TDE = time-dependent effect
HCT-116 [28] = assay: Induction of DNA damage in human HCT-116 cells assessed as tail length at 5 uM incubated for 48 hrs by alkaline Comet assay relative to control; format: functional, cell-based
Calf thymus DNA [29] = assay: Binding affinity to calf thymus DNA assessed as hyperchromic effect measured at 258 nm at 3*10^-5 mol/L by double beam UV-Vis spectroscopic analysis; format: nucleic-acid assay; settings: Bos taurus
HCT-116 [30] = assay: Induction of cell cycle arrest in human HCT-116 cells assessed as accumulation of cells at G2/M phase at 5 uM incubated for 20 hrs by propidium iodide staining based flow cytometry analysis; format: functional
NCI-H460 [31] = assay: Induction of apoptosis in human NCI-H460 cells assessed as cleaved PARP levels at 1 uM incubated for 48 hrs by Western blot analysis; format: functional, cell-based
HEK293 = assay: Antiproliferative activity against human HEK293 cells assessed as reduction in cell viability incubated for 48 hrs by sulphorhodamine B assay; format: functional
A549 = assay: Antiproliferative activity against human A549 cells assessed as reduction in cell viability incubated for 48 hrs by sulphorhodamine B assay; format: functional
NCI-H460 [32] = assay: Induction of DNA damage in human NCI-H460 cells incubated for 48 hrs by alkaline Comet assay; format: functional, cell-based
NCI-H460 [33] = assay: Induction of cell death in human NCI-H460 cells at 0.1 uM incubated for 48 hrs by propidium iodide staining based flow cytometry analysis; format: functional
HCT-116 [34] = assay: Induction of cell cycle arrest in human HCT-116 cells assessed as accumulation of cells at G2/M phase at 5 uM incubated for 48 hrs by propidium iodide staining based flow cytometry analysis; format: functional
NCI-H460 [35] = assay: Induction of cell cycle arrest in human NCI-H460 cells assessed as accumulation of cells at G1 phase incubated for 48 hrs by propidium iodide staining based flow cytometry analysis; format: functional; settings: dose 0.1-2 µM
[36] = target: T1, DNA topoisomerase 2-alpha; assay: Inhibition of recombinant human topoisomerase 2 assessed as decrease in relaxation of supercoiled pBlue-Script KS(+) plasmid DNA incubated for 30 mins by ethidium bromide staining based gel electrophoresis method
Calf thymus DNA [37] = assay: Binding affinity to calf thymus DNA assessed as hyperchromic effect measured at 302 nm at 3*10^-5 mol/L by double beam UV-Vis spectroscopic analysis; format: nucleic-acid assay; settings: Bos taurus
Calf thymus DNA [38] = assay: Binding affinity to calf thymus DNA assessed as red shift absorbance measured at 258 nm at 3*10^-5 mol/L by double beam UV-Vis spectroscopic analysis; format: nucleic-acid assay; settings: Bos taurus
HCT-116 [39] = assay: Anticlonogenic activity against human HCT-116 cells assessed as inhibition of colony formation at 0.1 to 5 uM incubated for 48 hrs followed by compound washout with PBS and measured after 14 days by crystal violet staining based analysis; format: functional, cell-based; settings: dose 0.1-5 µM
[40] = target: T2, DNA topoisomerase 1 (Homo sapiens) (UniProt P11387); assay: Inhibition of human topoisomerase 1 assessed as induction of negative supercoiled DNA using relaxed pBlue-Script KS(+) plasmid DNA as substrate measured after 15 mins by agarose gel electrophoresis analysis; settings: dose 60-100 µM
T2 sequence (whole entry): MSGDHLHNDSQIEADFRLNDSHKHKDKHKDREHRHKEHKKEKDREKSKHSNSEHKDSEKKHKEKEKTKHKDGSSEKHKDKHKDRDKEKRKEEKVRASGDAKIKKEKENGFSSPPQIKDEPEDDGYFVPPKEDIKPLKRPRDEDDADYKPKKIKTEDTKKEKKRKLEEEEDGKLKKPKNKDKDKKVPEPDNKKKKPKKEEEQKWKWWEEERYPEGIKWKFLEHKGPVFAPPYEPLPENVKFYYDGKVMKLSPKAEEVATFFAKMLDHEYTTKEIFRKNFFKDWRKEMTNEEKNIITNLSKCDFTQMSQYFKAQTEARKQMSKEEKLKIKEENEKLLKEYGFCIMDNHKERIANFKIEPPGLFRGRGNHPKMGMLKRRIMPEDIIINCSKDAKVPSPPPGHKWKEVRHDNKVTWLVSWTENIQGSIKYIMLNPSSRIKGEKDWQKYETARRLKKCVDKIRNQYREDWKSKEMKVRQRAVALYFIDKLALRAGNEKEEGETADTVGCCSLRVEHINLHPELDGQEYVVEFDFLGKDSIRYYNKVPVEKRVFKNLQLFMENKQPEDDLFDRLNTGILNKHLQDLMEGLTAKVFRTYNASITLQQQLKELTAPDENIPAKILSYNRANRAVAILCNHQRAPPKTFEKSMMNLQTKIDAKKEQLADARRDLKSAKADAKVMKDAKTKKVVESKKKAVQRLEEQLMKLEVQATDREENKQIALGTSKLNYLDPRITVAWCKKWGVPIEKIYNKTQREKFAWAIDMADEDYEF

NCI-H460 [41] = assay: Induction of apoptosis in human NCI-H460 cells assessed as morphological changes at 0.5 uM incubated for 48 hrs by acridine orange/propidium iodide double staining based fluorescence microscopy analysis; format: functional, cell-based

T1 sequence (P11388 whole entry): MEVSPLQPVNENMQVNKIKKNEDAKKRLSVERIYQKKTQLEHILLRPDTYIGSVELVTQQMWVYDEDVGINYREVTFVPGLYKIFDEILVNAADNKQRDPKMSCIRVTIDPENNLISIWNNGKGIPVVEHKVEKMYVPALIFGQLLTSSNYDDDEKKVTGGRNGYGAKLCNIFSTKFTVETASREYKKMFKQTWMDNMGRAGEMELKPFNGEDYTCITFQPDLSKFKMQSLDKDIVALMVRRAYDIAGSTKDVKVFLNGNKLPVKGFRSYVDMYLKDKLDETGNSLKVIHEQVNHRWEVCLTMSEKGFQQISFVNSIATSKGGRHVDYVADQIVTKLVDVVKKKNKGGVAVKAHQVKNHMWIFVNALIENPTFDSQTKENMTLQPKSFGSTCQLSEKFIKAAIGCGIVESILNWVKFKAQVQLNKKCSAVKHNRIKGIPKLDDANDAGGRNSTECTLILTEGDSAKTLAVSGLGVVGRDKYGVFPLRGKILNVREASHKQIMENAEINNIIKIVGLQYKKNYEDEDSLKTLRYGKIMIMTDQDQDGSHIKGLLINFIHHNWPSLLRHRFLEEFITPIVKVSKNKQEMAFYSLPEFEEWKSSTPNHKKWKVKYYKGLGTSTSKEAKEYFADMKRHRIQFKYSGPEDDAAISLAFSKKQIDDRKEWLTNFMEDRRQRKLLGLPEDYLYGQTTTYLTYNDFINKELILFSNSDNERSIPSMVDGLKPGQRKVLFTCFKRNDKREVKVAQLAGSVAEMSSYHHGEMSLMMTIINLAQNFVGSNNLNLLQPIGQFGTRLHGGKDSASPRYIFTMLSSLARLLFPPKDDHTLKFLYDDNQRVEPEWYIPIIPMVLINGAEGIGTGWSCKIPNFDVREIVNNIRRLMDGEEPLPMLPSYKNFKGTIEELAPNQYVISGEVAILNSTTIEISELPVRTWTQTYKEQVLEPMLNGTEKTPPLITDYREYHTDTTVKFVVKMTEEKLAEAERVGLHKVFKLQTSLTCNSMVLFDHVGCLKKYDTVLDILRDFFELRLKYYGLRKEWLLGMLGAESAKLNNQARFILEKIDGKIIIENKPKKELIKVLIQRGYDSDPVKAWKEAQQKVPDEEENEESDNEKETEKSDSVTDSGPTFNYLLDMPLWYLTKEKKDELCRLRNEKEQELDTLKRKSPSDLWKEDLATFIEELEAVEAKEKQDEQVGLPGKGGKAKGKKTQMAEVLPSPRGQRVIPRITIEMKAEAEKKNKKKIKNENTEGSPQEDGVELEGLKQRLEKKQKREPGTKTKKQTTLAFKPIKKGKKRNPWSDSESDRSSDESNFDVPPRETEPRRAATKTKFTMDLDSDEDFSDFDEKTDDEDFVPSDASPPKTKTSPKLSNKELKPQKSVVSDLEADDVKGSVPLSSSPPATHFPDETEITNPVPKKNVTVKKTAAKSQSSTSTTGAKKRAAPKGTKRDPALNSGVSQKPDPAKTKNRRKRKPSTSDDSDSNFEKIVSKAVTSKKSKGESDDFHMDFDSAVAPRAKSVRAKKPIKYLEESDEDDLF

Structure (SMILES) | GI50 (MCF7) | logD (physchem [3]) | GI50 (NCI-H460 [5]) | GI50 (HCT-116 [7]) | GI50 (Jurkat) | GI50 (HCT-116 [9]) | GI50 (HeLa [12]) | GI50 (U-251) | GI50 (SiHa) | GI50 (MDA-MB-231) | logP (physchem [18]) | Activity (Calf thymus DNA [22]) | Activity (HCT-116 [25]) | Activity (HCT-116 [28]) | other results
O=C1c2c[n+]([O-])c3ccccc3c2C(=O)c2[nH]c3ccccc3c21 [CALOTHRIXIN A] | 30 nM | 1.02 | 220 nM | 80 nM | 70 nM | 110 nM | 80 nM | 80 nM | 50 nM | 40 nM | 1.32 | 13% |  |  | Activity (Calf thymus DNA [1]): 10 nm; Activity (NCI-H460 [2]): Active; Activity (HCT-116 [4]): Active; Activity (NCI-H460 [6]): Active; Activity (Calf thymus DNA [8]): 13%; inhibition [10]: inactive; Activity (HCT-116 [11]): Active; Activity (HCT-116 [13]): Active; inhibition [14]: Active; Activity (Calf thymus DNA [15]): 12%; Activity (HCT-116 [16]): Active; Activity (HeLa [17]): Tde; Activity (NCI-H460 [19]): Active; Activity (HCT-116 [20]): Active; Activity (HCT-116 [21]): Active
CN(C)CCCNc1nc2ccccc2c2cc3[nH]c4ccccc4c3cc12 | 2750 nM |  | 1500 nM |  |  | 1750 nM | 1100 nM | 1350 nM | 1150 nM | 1000 nM |  | 40% |  |  | Activity (Calf thymus DNA [23]): 15 nm
O=C1c2[nH]c3ccccc3c2C(=O)c2cnc3ccccc3c21 [CALOTHRIXIN B] | 260 nM | -2.11 | > 4000 nM | 2550 nM | > 4000 nM | 650 nM | 470 nM | 2250 nM | 3500 nM | 160 nM | -1.81 |  | Active | Active | Activity (HCT-116 [24]): inactive; Activity (HCT-116 [26]): Active; Activity (HeLa [27]): Tde
Fc1ccc2c(c1)ncc1cc3c(cc12)[nH]c1ccccc13 | 20 nM | 1.61 | 1 nM |  | > 4000 nM | 6000 nM | 20 nM | > 4000 nM | > 4000 nM | 950 nM | 1.91 |  | Active | Active | Activity (Calf thymus DNA [29]): 46%; Activity (HCT-116 [30]): Active; Activity (NCI-H460 [31]): Active; GI50 (HEK293): 5.2 nM; GI50 (A549): > 4000 nM; Activity (NCI-H460 [32]): Dose-dependent effect; Activity (NCI-H460 [33]): Active; Activity (HCT-116 [34]): Active; Activity (NCI-H460 [35]): Dose-dependent effect; inhibition [36]: inactive; Activity (Calf thymus DNA [37]): 41%; Activity (Calf thymus DNA [38]): 14 nm; inhibition (HCT-116 [39]): Active; Activity [40]: Dose-dependent effect; Activity (NCI-H460 [41]): Active
